Measurements from US12721818B2, “Compositions and methods for delivery of RNA” (Rejuvenation Technologies Inc., priority 2021, dated 2026).

Test: pK of the ionizable lipid (Table 6A)
Format: physicochemical
Conditions: ionizable lipid of the Table 6A formulation

- pK: ~6.4
Structure (SMILES): CCCCCCCC/C=C\CCCCCCCC(=O)Oc1ccc(CC(=O)OCCC2CCN(CCSSCCN3CCC(CCOC(=O)Cc4ccc(OC(=O)CCCCCCC/C=C\CCCCCCCC)cc4)CC3)CC2)cc1 [SS-OP]
